Measured values reported in patent publication US8853230B2, “Inhibitors of JAK” (Portola Pharmaceuticals, Inc., priority 2009, dated 2014).
pIC50: −log10 of the molar value.

Columns and labels:
Assay type in all cases: biochemical
JAK1 = target: T1, JAK1 (Homo sapiens, UniProt P23458); assay: Z'-LYTE kinase assay, JAK1 tyrosine phosphorylation activity; settings: read-out: JAK 1 IC50
T1 construct: 5 μl of catalytic domain recombinant Kinase enzyme+Tyr peptide substrate (Invitrogen, Calif.); purchased Invitrogen
T1 sequence (P23458 875-1153 limits assumed): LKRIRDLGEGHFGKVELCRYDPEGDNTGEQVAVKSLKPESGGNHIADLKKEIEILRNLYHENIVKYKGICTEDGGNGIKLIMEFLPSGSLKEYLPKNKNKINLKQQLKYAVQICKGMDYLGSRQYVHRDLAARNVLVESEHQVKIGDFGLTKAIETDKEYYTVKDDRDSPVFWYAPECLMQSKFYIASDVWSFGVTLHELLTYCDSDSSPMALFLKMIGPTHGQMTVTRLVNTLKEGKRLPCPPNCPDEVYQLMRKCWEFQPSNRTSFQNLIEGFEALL
In short: (§1)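 Recombinant catalytic-domain kinase was incubated with coumarin/fluorescein-labelled Tyr6 peptide, ATP and compound (1% DMSO final) for 1 h at room temperature. Protease development then ran 1 h at room temperature. Emission ratio at 445/520 nm (excitation 400 nm) gave percent phosphorylation; IC50s came from 4-parameter logistic fits.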

JAK2 = target: T2, JAK2 (Homo sapiens, UniProt O60674); assay: Z'-LYTE kinase assay, JAK2 tyrosine phosphorylation activity
T2 construct: 5 μl of catalytic domain recombinant Kinase enzyme+Tyr peptide substrate (Invitrogen, Calif.); purchased Invitrogen
T2 sequence (O60674 849-1124 limits assumed): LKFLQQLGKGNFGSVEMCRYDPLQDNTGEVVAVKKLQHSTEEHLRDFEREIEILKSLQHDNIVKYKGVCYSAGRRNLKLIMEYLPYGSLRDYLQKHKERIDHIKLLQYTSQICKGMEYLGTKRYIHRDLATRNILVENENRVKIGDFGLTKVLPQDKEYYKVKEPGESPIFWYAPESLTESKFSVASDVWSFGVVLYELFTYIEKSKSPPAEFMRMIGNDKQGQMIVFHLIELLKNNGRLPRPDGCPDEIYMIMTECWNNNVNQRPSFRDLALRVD
In short: as §1

JAK3 = target: T3, JAK3 (Homo sapiens, UniProt P52333); assay: Z'-LYTE kinase assay, JAK3 tyrosine phosphorylation activity
T3 construct: 5 μl of catalytic domain recombinant Kinase enzyme+Tyr peptide substrate (Invitrogen, Calif.); purchased Invitrogen
T3 sequence (P52333 822-1111 limits assumed): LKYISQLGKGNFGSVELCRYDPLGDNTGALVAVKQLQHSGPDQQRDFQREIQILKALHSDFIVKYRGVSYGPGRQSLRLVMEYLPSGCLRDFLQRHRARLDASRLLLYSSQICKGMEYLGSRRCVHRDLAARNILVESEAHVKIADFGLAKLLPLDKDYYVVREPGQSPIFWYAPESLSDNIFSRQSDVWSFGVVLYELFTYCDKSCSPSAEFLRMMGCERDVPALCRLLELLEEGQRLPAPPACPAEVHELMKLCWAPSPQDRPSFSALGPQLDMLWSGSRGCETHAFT
In short: as §1

TYK2 = target: T4, TYK2 (Homo sapiens, UniProt P29597); assay: Z'-LYTE kinase assay, TYK2 tyrosine phosphorylation activity
T4 construct: 5 μl of catalytic domain recombinant Kinase enzyme+Tyr peptide substrate (Invitrogen, Calif.); purchased Invitrogen
T4 sequence (P29597 897-1176 limits assumed): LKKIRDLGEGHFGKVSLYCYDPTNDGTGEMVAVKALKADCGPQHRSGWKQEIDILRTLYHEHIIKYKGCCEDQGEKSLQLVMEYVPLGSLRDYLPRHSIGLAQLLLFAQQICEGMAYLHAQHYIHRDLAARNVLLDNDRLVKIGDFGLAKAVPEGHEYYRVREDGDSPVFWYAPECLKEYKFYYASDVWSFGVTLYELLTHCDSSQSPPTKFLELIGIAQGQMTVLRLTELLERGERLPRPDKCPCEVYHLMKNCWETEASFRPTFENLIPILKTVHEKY
In short: as §1

Compound: CC(=O)Nc1cc(Cl)cc(Nc2ncc(C(N)=O)c(NCc3ccccc3)n2)c1 [Example 260, 2-(3-acetamido-5-chlorophenylamino)-4-(benzylamino)pyrimidine-5-carboxamide]
- pIC50 (JAK1): < 6.00
- pIC50 (JAK2): 6.00 to 7.00
- pIC50 (JAK3): 7.00 to 8.00
- pIC50 (TYK2): 7.00 to 8.00

Compound: CC(=O)Nc1cccc(Nc2ncc(C(N)=O)c(NCC3CCCNC3)n2)c1 (stereo not shown) [Example 116, 2-(3-acetamidophenylamino)-4-(piperidin-3-ylmethylamino)pyrimidine-5-carboxamide]
- pIC50 (JAK1): 7.00 to 8.00
- pIC50 (JAK2): 7.00 to 8.00
- pIC50 (JAK3): 7.00 to 8.00
- pIC50 (TYK2): 7.00 to 8.00

Compound: COCC(=O)N(C)c1cccc(Nc2ncc(C(N)=O)c(NCC3CC3)n2)c1 [Example 125, 4-(cyclopropylmethylamino)-2-(3-(2-methoxy-N-methylacetamido)phenylamino)pyrimidine-5-carboxamide]
- pIC50 (JAK1): 7.00 to 8.00
- pIC50 (JAK2): 7.00 to 8.00
- pIC50 (JAK3): 7.00 to 8.00
- pIC50 (TYK2): 7.00 to 8.00

Compound: NC(=O)c1cnc(Nc2cc(NC(=O)N3CCCC3)ccc2F)nc1NCc1ccccc1 [Example 204, 4-(benzylamino)-2-(2-fluoro-5-(pyrrolidine-1-carboxamido)phenylamino)pyrimidine-5-carboxamide]
- pIC50 (JAK1): 6.00 to 7.00
- pIC50 (JAK2): 6.00 to 7.00
- pIC50 (JAK3): 6.00 to 7.00
- pIC50 (TYK2): 6.00 to 7.00

Compound: NC(=O)c1cnc(Nc2ccc(Cl)c(NC(=O)N3CCCC3)c2)nc1NCC1CCC1 [Example 263, 2-(4-chloro-3-(pyrrolidine-1-carboxamido)phenylamino)-4-(cyclobutylmethylamino)pyrimidine-5-carboxamide]
- pIC50 (JAK1): < 6.00
- pIC50 (JAK2): < 6.00
- pIC50 (JAK3): < 6.00
- pIC50 (TYK2): < 6.00

Compound: CC(=O)Nc1cc(Nc2ncc(C(N)=O)c(NCc3ccccc3)n2)ccc1Cl [Example 2, 2-(3-acetamido-4-chlorophenylamino)-4-(benzylamino)pyrimidine-5-carboxamide]
- pIC50 (JAK1): 7.00 to 8.00
- pIC50 (JAK2): 7.00 to 8.00
- pIC50 (JAK3): 8.00 to 9.00
- pIC50 (TYK2): 7.00 to 8.00

Compound: C[C@@H](Nc1nc(Nc2cccc(NC(=O)N3CCC(O)CC3)c2)ncc1C(N)=O)c1ccccc1 [Example 215]
- pIC50 (JAK1): 7.00 to 8.00
- pIC50 (JAK2): 7.00 to 8.00
- pIC50 (JAK3): 8.00 to 9.00
- pIC50 (TYK2): 7.00 to 8.00

Compound: CC(=O)Nc1cccc(Nc2cc(NCc3ccc4c(c3)OCO4)c(C(N)=O)cn2)c1 [Example 334, 6-(3-acetamidophenylamino)-4-(benzo[d][1,3]dioxol-5-ylmethylamino)nicotinamide]
- pIC50 (JAK1): < 6.00
- pIC50 (JAK2): < 6.00
- pIC50 (JAK3): 6.00 to 7.00
- pIC50 (TYK2): < 6.00

Compound: CC(=O)Nc1cccc(Nc2ncc(C(N)=O)c(Nc3cccc4nn(C)cc34)n2)c1 [Example 186, 2-(3-acetamidophenylamino)-4-(2-methyl-2H-indazol-4-ylamino)pyrimidine-5-carboxamide]
- pIC50 (JAK1): < 6.00
- pIC50 (JAK2): 7.00 to 8.00
- pIC50 (JAK3): 7.00 to 8.00
- pIC50 (TYK2): < 6.00

Compound: CC(=O)Nc1cc(Nc2ncc(C(N)=O)c(Nc3cccc4nsnc34)n2)ccc1OCCCN1CCCCC1 [Example 243]
- pIC50 (JAK1): 7.00 to 8.00
- pIC50 (JAK2): 8.00 to 9.00
- pIC50 (JAK3): 8.00 to 9.00
- pIC50 (TYK2): 8.00 to 9.00

Compound: NC(=O)c1cnc(Nc2cccc(N(C(=O)C3CC3)C3CC3)c2)nc1NCc1ccccc1 [Example 151, 4-(benzylamino)-2-(3-(N-cyclopropylcyclopropanecarboxamido)phenylamino)pyrimidine-5-carboxamide]
- pIC50 (JAK1): < 6.00
- pIC50 (JAK2): < 6.00
- pIC50 (JAK3): < 6.00
- pIC50 (TYK2): < 6.00

Compound: CC(=O)Nc1cccc(Nc2ncc(C(N)=O)c(Nc3cccc(-c4ncccn4)c3)n2)c1 [Example 199]
- pIC50 (JAK1): 7.00 to 8.00
- pIC50 (JAK2): 7.00 to 8.00
- pIC50 (JAK3): 7.00 to 8.00
- pIC50 (TYK2): 7.00 to 8.00

Compound: NC(=O)c1cnc(Nc2cccc(NC(=O)N3CCCC3)c2)nc1NCc1cccc(Cl)c1 [Example 180, 4-(3-chlorobenzylamino)-2-(3-(pyrrolidine-1-carboxamido)phenylamino)pyrimidine-5-carboxamide]
- pIC50 (JAK1): 7.00 to 8.00
- pIC50 (JAK2): 7.00 to 8.00
- pIC50 (JAK3): 8.00 to 9.00
- pIC50 (TYK2): 7.00 to 8.00

Compound: CNC(=O)c1cnc(Nc2cccc(NC(=O)COC)c2)nc1NC1Cc2ccccc2C1 [Example 114, 4-(2,3-dihydro-1H-inden-2-ylamino)-2-(3-(2-methoxyacetamido)phenylamino)-N-methylpyrimidine-5-carboxamide]
- pIC50 (JAK1): 7.00 to 8.00
- pIC50 (JAK2): 7.00 to 8.00
- pIC50 (JAK3): 7.00 to 8.00
- pIC50 (TYK2): 7.00 to 8.00

Compound: CC(=O)Nc1cc(Nc2ncc(C(N)=O)c(NCc3cccc(F)c3)n2)ccc1OCCN1CCCC1 [Example 223, 2-(3-acetamido-4-(2-(pyrrolidin-1-yl)ethoxy)phenylamino)-4-(3-fluorobenzylamino)pyrimidine-5-carboxamide]
- pIC50 (JAK1): 7.00 to 8.00
- pIC50 (JAK2): 8.00 to 9.00
- pIC50 (JAK3): 8.00 to 9.00
- pIC50 (TYK2): 7.00 to 8.00

Compound: C[C@@H](Nc1nc(Nc2cccc(NC(=O)[C@@H]3CCCO3)c2)ncc1C(N)=O)c1ccccc1 [Example 207, 4-((R)-1-phenylethylamino)-2-(3-((S)-tetrahydrofuran-2-carboxamido)phenylamino)pyrimidine-5-carboxamide]
- pIC50 (JAK1): 6.00 to 7.00
- pIC50 (JAK2): 7.00 to 8.00
- pIC50 (JAK3): 8.00 to 9.00
- pIC50 (TYK2): 7.00 to 8.00

Compound: CC(=O)N(c1cccc(Nc2ncc(C(N)=O)c(N[C@H](C)c3ccccc3)n2)c1)C1CC1 [Example 161, (R)-2-(3-(N-cyclopropylacetamido)phenylamino)-4-(1-phenylethylamino)pyrimidine-5-carboxamide]
- pIC50 (JAK1): 6.00 to 7.00
- pIC50 (JAK2): 7.00 to 8.00
- pIC50 (JAK3): 8.00 to 9.00
- pIC50 (TYK2): 6.00 to 7.00

Compound: CC(=O)Nc1cc(Nc2ncc(C(N)=O)c(Nc3cccc4nn(C)cc34)n2)ccc1OCCN(C)C [Example 229, 2-(3-acetamido-4-(2-(dimethylamino)ethoxy)phenylamino)-4-(2-methyl-2H-indazol-4-ylamino)pyrimidine-5-carboxamide]
- pIC50 (JAK1): < 6.00
- pIC50 (JAK2): 7.00 to 8.00
- pIC50 (JAK3): 7.00 to 8.00
- pIC50 (TYK2): 6.00 to 7.00

Compound: CC(=O)Nc1cccc(Nc2cc(NCCc3ccccc3)c(C(N)=O)cn2)c1 [Example 338, 6-(3-acetamidophenylamino)-4-(phenethylamino)nicotinamide]
- pIC50 (JAK1): < 6.00
- pIC50 (JAK2): < 6.00
- pIC50 (JAK3): 6.00 to 7.00
- pIC50 (TYK2): 6.00 to 7.00

Compound: CC(=O)Nc1cccc(Nc2ncc(C(N)=O)c(NCc3cccc(F)c3F)n2)c1 [Example 95, 2-(3-acetamidophenylamino)-4-(2,3-difluorobenzylamino)pyrimidine-5-carboxamide]
- pIC50 (JAK1): 7.00 to 8.00
- pIC50 (JAK2): 7.00 to 8.00
- pIC50 (JAK3): 8.00 to 9.00
- pIC50 (TYK2): 7.00 to 8.00

Compound: CC(=O)N(C)c1cccc(Nc2ncc(C(N)=O)c(NCC3CC3)n2)c1 [Example 126, 4-(cyclopropylmethylamino)-2-(3-(N-methylacetamido)phenylamino)pyrimidine-5-carboxamide]
- pIC50 (JAK1): 7.00 to 8.00
- pIC50 (JAK2): 7.00 to 8.00
- pIC50 (JAK3): 7.00 to 8.00
- pIC50 (TYK2): 7.00 to 8.00

Compound: CC(=O)Nc1cc(Nc2ncc(C(N)=O)c(Nc3cccc4nn(C)cc34)n2)ccc1OCCN1CCCC1 [Example 224, 2-(3-acetamido-4-(2-(pyrrolidin-1-yl)ethoxy)phenylamino)-4-(2-methyl-2H-indazol-4-ylamino)pyrimidine-5-carboxamide]
- pIC50 (JAK1): 6.00 to 7.00
- pIC50 (JAK2): 7.00 to 8.00
- pIC50 (JAK3): 7.00 to 8.00
- pIC50 (TYK2): 6.00 to 7.00

Compound: CC(=O)Nc1cccc(Nc2ncc(C(=O)O)c(NCC3CCNC3)n2)c1 (stereo not shown) [Example 226, 2-(3-acetamidophenylamino)-4-(pyrrolidin-3-ylmethylamino)pyrimidine-5-carboxylic acid]
- pIC50 (JAK1): 7.00 to 8.00
- pIC50 (JAK2): 6.00 to 7.00
- pIC50 (JAK3): 7.00 to 8.00
- pIC50 (TYK2): 6.00 to 7.00

Compound: CC(=O)Nc1cccc(Nc2ncc(C(N)=O)c(NCC3CCCN(S(C)(=O)=O)C3)n2)c1 (stereo not shown) [Example 120, 2-(3-acetamidophenylamino)-4-((1-(methylsulfonyl)piperidin-3-yl)methylamino)pyrimidine-5-carboxamide]
- pIC50 (JAK1): 7.00 to 8.00
- pIC50 (JAK2): 7.00 to 8.00
- pIC50 (JAK3): 8.00 to 9.00
- pIC50 (TYK2): 7.00 to 8.00

Compound: COc1ccc(Nc2ncc(C(N)=O)c(NCc3ccccc3)n2)cc1N(C)C(=O)N1CCCC1 [Example 239, 4-(benzylamino)-2-(4-methoxy-3-(N-methylpyrrolidine-1-carboxamido)phenylamino)pyrimidine-5-carboxamide]
- pIC50 (JAK1): 6.00 to 7.00
- pIC50 (JAK2): 7.00 to 8.00
- pIC50 (JAK3): 7.00 to 8.00
- pIC50 (TYK2): 7.00 to 8.00

Compound: COCC(=O)N(c1cccc(Nc2ncc(C(N)=O)c(N[C@H](C)c3ccccc3)n2)c1)C1CC1 [Example 162, (R)-2-(3-(N-cyclopropyl-2-methoxyacetamido)phenylamino)-4-(1-phenylethylamino)pyrimidine-5-carboxamide]
- pIC50 (JAK1): 7.00 to 8.00
- pIC50 (JAK2): 7.00 to 8.00
- pIC50 (JAK3): 8.00 to 9.00
- pIC50 (TYK2): 7.00 to 8.00

Compound: NC(=O)c1cnc(Nc2cccc(NC(=O)N3CCOCC3)c2)nc1NCc1cccc(F)c1 [Example 259]
- pIC50 (JAK1): 7.00 to 8.00
- pIC50 (JAK2): 8.00 to 9.00
- pIC50 (JAK3): 8.00 to 9.00
- pIC50 (TYK2): 8.00 to 9.00

Compound: CC(=O)Nc1cccc(Nc2ncc(C(N)=O)c(NCC3CCCN(C(=O)Nc4ccc(F)cc4)C3)n2)c1 (stereo not shown) [Example 118, 2-(3-acetamidophenylamino)-4-((1-(4-fluorophenylcarbamoyl)piperidin-3-yl)methylamino)pyrimidine-5-carboxamide]
- pIC50 (JAK1): 7.00 to 8.00
- pIC50 (JAK2): 7.00 to 8.00
- pIC50 (JAK3): 8.00 to 9.00
- pIC50 (TYK2): 7.00 to 8.00
